The source of these data is PMC6274495, “Purification and Characterization of a White Laccase with Pronounced Dye Decolorizing Ability and HIV-1 Reverse Transcriptase Inhibitory Activity from Lepista nuda” (Molecules, 2016).

Usually Km stands for the concentration of substrate that gives half-maximal velocity.

For this assay, the system named is T1, L. nuda laccase.
T1 construct: gene EC 1.10.3.2; native, purified from culture broth (fraction SU3); 56 kDa monomer; white laccase
Put plainly: spectrophotometric oxidation, Lineweaver-Burk plot. In kind it is biochemical, Collybia nuda. The following applies: HAc-NaAc buffer pH 4.6, 25 °C.

Structures can show the parent of a compound that is named as a salt.

As for `CCn1c(=NN=c2sc3cc(S(=O)(=O)O)ccc3n2CC)sc2cc(S(=O)(=O)O)ccc21` [ABTS, 2,7-azinobis(3-ethylbenzothia-zolone-6-sulfonic acid) diammonium salt], the Km worked out at 190 µM.
